From patent publication US20240041715A1, “PROCESS FOR TREATING HUMAN PERSPIRATION AND BODY ODORS USING MAGNESIUM OXIDE AND A PHOSPHATE SALT” (L' OREAL, priority 2020, published 2024)

Experiment: in vitro "sniff test" model of deodorant effectiveness using human sweat incubated at 37° C.
Conditions: average odor intensity rating, scores from 1=weak odor to 8=very strong odor, single ingredient
Method: The deodorant effectiveness of different KH2PO4/MgO mixtures at different molar ratios was studied in vitro in a “sniff test” model using human sweat incubated at 37° C.

| Structure (SMILES) | Odor intensity |
| --- | --- |
| O=P([O-])(O)O.[K+] [KH2PO4, potassium dihydrogen phosphate] | 8 |
| [O]=[Mg] [MgO, magnesium oxide] | 1 |
